Reference: patent US20230095836A1, “SUBSTITUTED 5,6-DIPHENYL-3(2H)-PYRIDAZINONES FOR USE AS FUNGICIDES” (FMC Corporation, priority 2020, published 2023)

How the values were obtained:
Alternaria solani = assay: Test F: test suspension sprayed on tomato seedlings, inoculated next day with Alternaria solani (tomato early blight); visual disease rating (100 = 100% disease control, 0 = no control; dash = not tested); format: in vivo
Summary of the method: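 Tomato seedlings sprayed to run-off with test suspension, inoculated next day with A. solani spores, held saturated at 27° C. for 48 h, then 20° C. for 3 days. Disease visually rated as % control relative to untreated controls.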

Zymoseptoria tritici = assay: Test A: test solution sprayed on wheat seedlings, inoculated next day with Zymoseptoria tritici (wheat leaf blotch); disease rating (100 = 100% disease control, 0 = no control; dash = not tested); format: in vivo
Summary of the method: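 Wheat seedlings sprayed to run-off with test solution, inoculated next day with Z. tritici spores, held 48 h at 24° C in saturated atmosphere, then 17 days at 20° C before rating. Scores are % disease control relative to controls (100 = full control, 0 = none).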

Botrytis cinerea = assay: Test E: test suspension sprayed on tomato seedlings, inoculated next day with Botrytis cinerea (tomato Botrytis); visual disease rating (100 = 100% disease control, 0 = no control; dash = not tested); format: in vivo
Summary of the method: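 Tomato seedlings were sprayed to run-off and inoculated next day with Botrytis cinerea spores. They were held 48 h at 20° C in saturated humidity, then 3 days at 24° C. Disease control was rated visually against controls (100 = full, 0 = none).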

[1] = test system: Puccinia recondita f. sp. tritici; assay: Test B: test solution sprayed on wheat seedlings, inoculated next day with Puccinia recondita f. sp. tritici (wheat leaf rust); disease rating (100 = 100% disease control, 0 = no control; dash = not tested); format: in vivo
Text: The resulting test suspensions were then used in Tests A-F. The test solution was sprayed to the point of run-off on wheat seedlings. […] A rating of 100 indicates 100% disease control and a rating of 0 indicates no disease control (relative to the controls). A dash (—) indicates the compound was not tested.

Phakopsora pachyrhizi = assay: Test D: test solution sprayed on soybean seedlings, inoculated next day with Phakopsora pachyrhizi (Asian soybean rust); visual disease rating (100 = 100% disease control, 0 = no control; dash = not tested); format: in vivo
Summary of the method: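 Compounds predissolved in acetone (3% of final volume), suspended at ppm concentrations in 50/50 acetone/water with 250 ppm PEG400, sprayed to run-off on soybean seedlings. Inoculated next day with spores, 24 h saturated atmosphere at 22 °C, then 8 days growth chamber at 22 °C; visual rating, 100 = full control.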

[2] = test system: Blumeria graminis f. sp. tritici; assay: Test C: test suspension sprayed on wheat seedlings, inoculated next day with Blumeria graminis f. sp. tritici (wheat powdery mildew); visual disease rating (100 = 100% disease control, 0 = no control; dash = not tested); format: in vivo
Summary of the method: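 Wheat seedlings were sprayed to run-off with test suspension, then dusted next day with Blumeria graminis f. sp. tritici spores. After 8 days at 20 °C in a growth chamber, disease was rated visually as percent control relative to untreated controls.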

SMILES	pest or weed control at 250 ppm (Alternaria solani) [%]	pest or weed control at 250 ppm (Zymoseptoria tritici) [%]	pest or weed control at 250 ppm (Botrytis cinerea) [%]	pest or weed control at 250 ppm [1] [%]	pest or weed control at 250 ppm (Phakopsora pachyrhizi) [%]	pest or weed control at 250 ppm [2] [%]	melting point [°C]	Test F disease control rating (Alternaria solani; 50 ppm) [%]	Test A disease control rating (Zymoseptoria tritici; 50 ppm) [%]	Test E disease control rating (Botrytis cinerea; 50 ppm) [%]	Test B disease control rating ([1]; 50 ppm) [%]	Test D disease control rating (Phakopsora pachyrhizi; 50 ppm) [%]	Test C disease control rating ([2]; 50 ppm) [%]	other results
Cn1nc(-c2ccc(F)cc2Cl)c(-c2ccc(F)cc2Cl)c(C#N)c1=O [Compound 6, 5,6-bis(2-chloro-4-fluorophenyl)-2,3-dihydro-2-methyl-3-oxo-4-pyridazine-carbonitrile]	99	100	99	100	0	92	137 to 140	–	–	–	–	–	–	–
COc1cc(OC)c(Cl)c(-c2nn(C)c(=O)cc2-c2c(F)cccc2F)c1 [Compound 12, 6-(2-chloro-3,5-dimethoxyphenyl)-5-(2,6-difluorophenyl)-2-methyl-3(2H)-pyridazinone]	0	100	99	100	100	100	172 to 176	–	–	–	–	–	–	–
COc1cc(OC)c([N+](=O)[O-])c(-c2nn(C)c(=O)cc2-c2c(F)cccc2F)c1 [Compound 13, 5-(2,6-difluorophenyl)-6-(3,5-dimethoxy-2-nitrophenyl)-2-methyl-3(2H)-pyridazinone]	9	94	99	99	63	81	174 to 178	–	–	–	–	–	–	–
COc1cc(-c2nn(C)c(=O)cc2-c2c(F)cccc2F)cc(OC)c1Cl [Compound 14, 6-(4-chloro-3,5-dimethoxyphenyl)-5-(2,6-difluorophenyl)-2-methyl-3(2H)-pyridazinone]	0	88	0	80	0	0	221 to 225	–	–	–	–	–	–	–
COc1cc(OC)c(Cl)c(-c2nn(C)c(=O)cc2-c2ccc(F)cc2Cl)c1 [Compound 25, 6-(2-chloro-3,5-dimethoxyphenyl)-5-(2-chloro-4-fluorophenyl)-2-methyl-3(2H)-pyridazinone]	–	–	–	–	–	–	121 to 125	–	–	–	–	–	–	pest or weed control at 50 ppm (Alternaria solani; 50 ppm): 85%; pest or weed control at 50 ppm (Zymoseptoria tritici; 50 ppm): 100%; pest or weed control at 50 ppm (Botrytis cinerea; 50 ppm): 100%; pest or weed control at 50 ppm ([1]; 50 ppm): 100%; pest or weed control at 50 ppm (Phakopsora pachyrhizi; 50 ppm): 94%; pest or weed control at 50 ppm ([2]; 50 ppm): 98%
CCN1N=C(c2cc(OC)cc(OC)c2)C(c2c(F)cccc2F)CC1=O (centres unmarked) [Compound 33, 5-(2,6-difluorophenyl)-6-(3,5-dimethoxyphenyl)-4,5-dihydro-2-ethyl-3(2H)-pyridazinone]	0	0	0	55	0	0	119 to 122	–	–	–	–	–	–	–
COc1cc(OC)cc(-c2nn(C)c(=O)c(Br)c2-c2c(F)cccc2F)c1 [Compound 34, 4-bromo-5-(2,6-difluorophenyl)-6-(3,5-dimethoxyphenyl)-2-methyl-3(2H)-pyridazinone]	99	100	99	89	99	95	153 to 157	–	–	–	–	–	–	–
COc1cc(OC)c(Cl)c(-c2nn(C)c(=O)c(Cl)c2-c2c(F)cccc2F)c1 [Compound 35, 4-chloro-6-(2-chloro-3,5-dimethoxyphenyl)-5-(2,6-difluorophenyl)-2-methyl-3(2H)-pyridazinone]	99	100	99	100	100	100	192 to 196	–	–	–	–	–	–	–
COc1cc(OC)cc(-c2nn(C)c(=O)c(Cl)c2-c2c(F)cccc2F)c1 [Compound 36, 4-chloro-5-(2,6-difluorophenyl)-6-(3,5-dimethoxyphenyl)-2-methyl-3(2H)-pyridazinone]	99	100	100	100	93	99	150 to 154	–	–	–	–	–	–	–
COc1cc(OC)c([N+](=O)[O-])c(-c2nn(C)c(=O)c(Cl)c2-c2c(F)cccc2F)c1 [Compound 37, 4-chloro-5-(2,6-difluorophenyl)-6-(3,5-dimethoxy-2-nitrophenyl)-2-methyl-3(2H)-pyridazinone]	99	99	99	100	100	98	223 to 227	–	–	–	–	–	–	–
COc1cc(OC)cc(-c2nn(C)c(=O)cc2-c2c(F)cccc2F)c1 [Compound 38, 5-(2,6-difluorophenyl)-6-(3,5-dimethoxyphenyl)-2-methyl-3(2H)-pyridazinone]	0	98	98	99	0	81	132 to 136	–	–	–	–	–	–	–
COc1cc(-c2nn(C)c(=O)cc2-c2ccc(F)cc2Cl)cc(OC)c1Cl [Compound 203]	–	–	–	–	–	–	–	0	0	31	0	0	0	–
COc1cc(C#N)cc(-c2cc(=O)n(C)nc2-c2cc(C#N)cc(OC)c2)c1 [Compound 204]	–	–	–	–	–	–	–	0	2	0	0	39	0	–
COc1cc(F)c(Cl)c(-c2nn(C)c(=O)cc2-c2c(F)cccc2F)c1 [Compound 205]	–	–	–	–	–	–	–	99	100	99	99	71	98	–
COc1cc(F)cc(-c2nn(C)c(=O)cc2-c2c(F)cccc2F)c1Cl [Compound 206]	–	–	–	–	–	–	–	76	97	100	100	65	93	–
COc1ccc(Cl)c(C2=NN(C)C(=O)CC2c2c(F)cccc2F)c1 (centres unmarked) [Compound 207]	–	–	–	–	–	–	–	0	79	100	68	0	90	–
COc1ccc(Cl)c(C2=NN(C)C(=O)C(C)C2c2c(F)cccc2F)c1 (centres unmarked) [Compound 208]	–	–	–	–	–	–	–	100	96	100	100	0	99	–
